Laboratory results taken from patent US10736883B2, “Triazole furan compounds as agonists of the APJ receptor” (AMGEN INC., priority 2016, dated 2020).

The compounds below were run against APJ receptor (Homo sapiens (Human), UniProt P35414) (assay: [35S]GTPγS binding assay on membranes from CHO cells stably expressing human APJ receptor). Conditions: membranes of CHO cells stably expressing human APJ receptor, means of several independent experiments, read-out: Activity hAPJ SPA EC50 IP.
Format: biochemical
Method in brief: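 Membranes from CHO cells stably expressing human APJ were incubated with 0.2 nM [35S]GTPγS and ligands for 90 min at RT in 20 mM HEPES pH 7.5, 5 mM MgCl2, 200 mM NaCl, 3 μM GDP, 0.1% BSA with WGA PS beads. Nonspecific binding was set with 100 μM GTPγS. EC50 came from non-linear regression.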

APJ receptor, sequence (P35414 whole entry): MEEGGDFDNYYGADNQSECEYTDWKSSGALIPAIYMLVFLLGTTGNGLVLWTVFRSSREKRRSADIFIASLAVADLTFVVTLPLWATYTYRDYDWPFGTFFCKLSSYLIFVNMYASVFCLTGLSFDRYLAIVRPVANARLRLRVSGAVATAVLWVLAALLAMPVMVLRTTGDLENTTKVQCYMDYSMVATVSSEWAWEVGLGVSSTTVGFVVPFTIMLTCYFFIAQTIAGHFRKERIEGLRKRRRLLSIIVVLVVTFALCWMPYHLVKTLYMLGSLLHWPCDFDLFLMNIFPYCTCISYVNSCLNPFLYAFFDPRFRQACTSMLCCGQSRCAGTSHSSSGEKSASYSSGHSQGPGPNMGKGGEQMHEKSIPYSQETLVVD

Row | EC50 [nM] | Compound
1 | 3.6 | COc1cccc(OC)c1-n1c(NS(=O)(=O)[C@H](C)Cc2ncc(Cl)cn2)nnc1-c1ccco1 (single isomer, unassigned) [Example 37.0, (2R)-1-(5-chloro-2-pyrimidinyl)-N-(4-(2,6-dimethoxyphenyl)-5-(2-furanyl)-4H-1,2,4-triazol-3-yl)-2-propanesulfonamide or (2S)-1-(5-chloro-2-pyrimidinyl)-N-(4-(2,6-dimethoxyphenyl)-5-(2-furanyl)-4H-1,2,4-triazol-3-yl)-2-propanesulfonamide]
2 | 3.8 | COc1cccc(OC)c1-n1c(NS(=O)(=O)[C@@H](C)Cc2cnc(C)cn2)nnc1-c1ccc(C)o1 (single isomer, unassigned) [Example 38.0, (2S)—N-(4-(2,6-dimethoxyphenyl)-5-(5-methyl-2-furanyl)-4H-1,2,4-triazol-3-yl)-1-(5-methyl-2-pyrazinyl)-2-propanesulfonamide or (2R)—N-(4-(2,6-dimethoxyphenyl)-5-(5-methyl-2-furanyl)-4H-1,2,4-triazol-3-yl)-1-(5-methyl-2-pyrazinyl)-2-propanesulfonamide]
3 | 11 | COc1cccc(OC)c1-n1c(NS(=O)(=O)[C@@H](C)[C@H](O)c2ccc(C#N)cn2)nnc1-c1ccc(C)o1 (single isomer, unassigned) [Example 40.0, (1R,2S)-1-(5-cyano-2-pyridinyl)-N-(4-(2,6-dimethoxyphenyl)-5-(5-methyl-2-furanyl)-4H-1,2,4-triazol-3-yl)-1-hydroxy-2-propanesulfonamide or (1S,2R)-1-(5-cyano-2-pyridinyl)-N-(4-(2,6-dimethoxyphenyl)-5-(5-methyl-2-furanyl)-4H-1,2,4-triazol-3-yl)-1-hydroxy-2-propanesulfonamide]
4 | 12 | COc1cccc(OC)c1-n1c(NS(=O)(=O)[C@H](C)Cc2ccc(C)nn2)nnc1-c1ccco1 (single isomer, unassigned) [Example 42.0, (2R)—N-(4-(2,6-dimethoxyphenyl)-5-(2-furanyl)-4H-1,2,4-triazol-3-yl)-1-(6-methyl-3-pyridazinyl)-2-propanesulfonamide or (2S)—N-(4-(2,6-dimethoxyphenyl)-5-(2-furanyl)-4H-1,2,4-triazol-3-yl)-1-(6-methyl-3-pyridazinyl)-2-propanesulfonamide]
5 | 25 | COc1cccc(OC)c1-n1c(NS(=O)(=O)[C@H](C)Cc2ccc(C)nn2)nnc1-c1ccc(C)o1 (single isomer, unassigned) [Example 43.0, (2R)—N-(4-(2,6-dimethoxyphenyl)-5-(5-methyl-2-furanyl)-4H-1,2,4-triazol-3-yl)-1-(6-methyl-3-pyridazinyl)-2-propanesulfonamide or (2S)—N-(4-(2,6-dimethoxyphenyl)-5-(5-methyl-2-furanyl)-4H-1,2,4-triazol-3-yl)-1-(6-methyl-3-pyridazinyl)-2-propanesulfonamide]
6 | 44 | COc1cccc(OC)c1-n1c(NS(=O)(=O)[C@H](C)Cc2ccncn2)nnc1-c1ccco1 (single isomer, unassigned) [Example 44.0, (2R)—N-(4-(2,6-dimethoxyphenyl)-5-(2-furanyl)-4H-1,2,4-triazol-3-yl)-1-(4-pyrimidinyl)-2-propanesulfonamide or (2S)—N-(4-(2,6-dimethoxyphenyl)-5-(2-furanyl)-4H-1,2,4-triazol-3-yl)-1-(4-pyrimidinyl)-2-propanesulfonamide]
7 | 72 | COc1cccc(OC)c1-n1c(NS(=O)(=O)[C@H](C)Cc2cncnc2)nnc1-c1ccco1 (single isomer, unassigned) [Example 45.0, (2R)—N-(4-(2,6-dimethoxyphenyl)-5-(2-furanyl)-4H-1,2,4-triazol-3-yl)-1-(5-pyrimidinyl)-2-propanesulfonamide or (2S)—N-(4-(2,6-dimethoxyphenyl)-5-(2-furanyl)-4H-1,2,4-triazol-3-yl)-1-(5-pyrimidinyl)-2-propanesulfonamide]
8 | 300 | COc1cccc(OC)c1-n1c(NS(=O)(=O)[C@H](C)Cc2ccncn2)nnc1-c1ccco1 (single isomer, unassigned) [Example 46.0, (2R)—N-(4-(2,6-dimethoxyphenyl)-5-(2-furanyl)-4H-1,2,4-triazol-3-yl)-1-(4-pyrimidinyl)-2-propanesulfonamide or (2S)—N-(4-(2,6-dimethoxyphenyl)-5-(2-furanyl)-4H-1,2,4-triazol-3-yl)-1-(4-pyrimidinyl)-2-propanesulfonamide]
9 | 0.11 | COc1cccc(OC)c1-n1c(NS(=O)(=O)[C@@H](C)[C@@H](O)c2ccc(F)cn2)nnc1-c1ccc(C)o1 (single isomer, unassigned) [Example 57.0]
10 | 0.13 | COc1cccc(OC)c1-n1c(NS(=O)(=O)C[C@H](O)c2ccc(C#N)cn2)nnc1-c1ccc(C)o1 (single isomer, unassigned) [Example 58.0, (2R)-2-(5-cyano-2-pyridinyl)-N-(4-(2,6-dimethoxyphenyl)-5-(5-methyl-2-furanyl)-4H-1,2,4-triazol-3-yl)-2-hydroxyethanesulfonamide or (2S)-2-(5-cyano-2-pyridinyl)-N-(4-(2,6-dimethoxyphenyl)-5-(5-methyl-2-furanyl)-4H-1,2,4-triazol-3-yl)-2-hydroxyethanesulfonamide]
11 | 0.16 | COc1cccc(OC)c1-n1c(NS(=O)(=O)[C@@H](C)[C@@H](O)c2ccc(F)cn2)nnc1-c1ccc(C)o1 (single isomer, unassigned) [Example 59.0]
12 | 0.2 | COc1cccc(OC)c1-n1c(NS(=O)(=O)[C@@H](C)[C@H](O)c2ccc(C#N)cc2F)nnc1-c1ccc(C)o1 (single isomer, unassigned) [Example 61.0]
13 | 0.22 | COc1cccc(OC)c1-n1c(NS(=O)(=O)[C@@H](CCO)[C@H](C)c2ncc(C)cn2)nnc1-c1ccc(C)o1 (single isomer, unassigned) [Example 62.0]
14 | 0.24 | COc1cccc(OC)c1-n1c(NS(=O)(=O)[C@@H](C)[C@@H](O)c2ccc(C)cn2)nnc1-c1ccc(C)o1 (single isomer, unassigned) [Example 63.0]
15 | 0.32 | COc1cccc(OC)c1-n1c(NS(=O)(=O)C[C@H](O)c2ccc(C#N)cn2)nnc1-c1ccc(C)o1 (single isomer, unassigned) [Example 66.0, (2R)-2-(5-Cyano-2-pyridinyl)-N-(4-(2,6-dimethoxyphenyl)-5-(5-methyl-2-furanyl)-4H-1,2,4-triazol-3-yl)-2-hydroxyethanesulfonamide or (2S)-2-(5-cyano-2-pyridinyl)-N-(4-(2,6-dimethoxyphenyl)-5-(5-methyl-2-furanyl)-4H-1,2,4-triazol-3-yl)-2-hydroxyethanesulfonamide]
16 | 0.36 | COCC[C@@H]([C@H](C)c1ncc(F)cn1)S(=O)(=O)Nc1nnc(-c2ccc(C)o2)n1-c1c(OC)cccc1OC (single isomer, unassigned) [Example 67.0]
17 | 0.47 | COCC[C@@H](Cc1ncc(C)cn1)S(=O)(=O)Nc1nnc(-c2ccc(C)o2)n1-c1c(OC)cccc1OC (single isomer, unassigned) [Example 71.0, (2R)—N-(4-(2,6-Dimethoxyphenyl)-5-(5-methyl-2-furanyl)-4H-1,2,4-triazol-3-yl)-4-methoxy-1-(5-methyl-2-pyrimidinyl)-2-butanesulfonamide or (2S)—N-(4-(2,6-dimethoxyphenyl)-5-(5-methyl-2-furanyl)-4H-1,2,4-triazol-3-yl)-4-methoxy-1-(5-methyl-2-pyrimidinyl)-2-butanesulfonamide]
18 | 0.48 | COC[C@@H](Cc1ncc(F)cn1)S(=O)(=O)Nc1nnc(-c2ccc(C)o2)n1-c1c(OC)cccc1OC (single isomer, unassigned) [Example 72.0, (2R)—N-(4-(2,6-Dimethoxyphenyl)-5-(5-methyl-2-furanyl)-4H-1,2,4-triazol-3-yl)-1-(5-fluoro-2-pyrimidinyl)-3-methoxy-2-propanesulfonamide or (2S)—N-(4-(2,6-dimethoxyphenyl)-5-(5-methyl-2-furanyl)-4H-1,2,4-triazol-3-yl)-1-(5-fluoro-2-pyrimidinyl)-3-methoxy-2-propanesulfonamide]

Row | Compound | EC50 [nM]
19 | COc1cccc(OC)c1-n1c(NS(=O)(=O)[C@H](C)Cc2ncc(Br)cn2)nnc1-c1ccco1 (single isomer, unassigned) [Example 36.0, (2R)-1-(5-bromo-2-pyrimidinyl)-N-(4-(2,6-dimethoxyphenyl)-5-(2-furanyl)-4H-1,2,4-triazol-3-yl)-2-propanesulfonamide or (2S)-1-(5-bromo-2-pyrimidinyl)-N-(4-(2,6-dimethoxyphenyl)-5-(2-furanyl)-4H-1,2,4-triazol-3-yl)-2-propanesulfonamide] | 3.5
20 | COc1cccc(OC)c1-n1c(NS(=O)(=O)[C@@H](C)[C@@H](O)c2coc(C)n2)nnc1-c1ccc(C)o1 (single isomer, unassigned) [Example 55.0, (1S,2S)—N-(4-(2,6-dimethoxyphenyl)-5-(5-methyl-2-furanyl)-4H-1,2,4-triazol-3-yl)-1-hydroxy-1-(2-methyl-1,3-oxazol-4-yl)-2-propanesulfonamide or (1R,2R)—N-(4-(2,6-dimethoxyphenyl)-5-(5-methyl-2-furanyl)-4H-1,2,4-triazol-3-yl)-1-hydroxy-1-(2-methyl-1,3-oxazol-4-yl)-2-propanesulfonamide] | 28
21 | COc1cccc(OC)c1-n1c(NS(=O)(=O)[C@H](C)[C@@H](O)c2ccc(C)cn2)nnc1-c1ccc(C)o1 (single isomer, unassigned) [Example 65.0] | 0.31
22 | COc1cccc(OC)c1-n1c(NS(=O)(=O)[C@@H](C)[C@H](O)c2ncc(C#N)cc2F)nnc1-c1ccc(C)o1 (single isomer, unassigned) [Example 68.0] | 0.37
23 | COc1cccc(OC)c1-n1c(NS(=O)(=O)[C@H](C)[C@H](O)c2ccc(F)cc2CO)nnc1-c1ccc(C)o1 (single isomer, unassigned) [Example 73.0] | 0.49
